What was measured:
Hepatitis C virus [1] = assay: Antiviral activity against HCV JFH-1 infected in human HuH7.5.1 cells after 48 hrs by luciferase reporter gene assay; format: functional, cell-based, Hepacivirus hominis; details: genotype 2a JFH-1, Huh-7, 48 h
[2] = Cytotoxicity against human Huh7.5.1 cells after 48 hrs by luciferase reporter gene assay; format: toxicity, cell-based, Huh-7
Hepatitis C virus [3] = assay: Antiviral activity against HCV infected in human Huh7 cells assessed as reduction in viral RNA replication after 4 days; format: functional, cell-based, Hepacivirus hominis; details: Huh-7, 96 h

Q: Which EC50 (Hepatitis C virus [1]) does the source give for `CCCOC(=O)[C@H](C)NP(=O)(OC[C@H]1O[C@@H](n2ccc(=O)[nH]c2=O)[C@@](C)(F)[C@@H]1O)Oc1ccccc1` (some centres undefined) here?
A: The EC50 was over 50 µM.

Q: What about the CC50 at 48 h [2] of the same compound?
A: Its CC50 at 48 h is over 100 µM.

Q: Which EC50 (Hepatitis C virus [1]) does the source give for `C[C@H](NP(=O)(OC[C@H]1O[C@@H](n2ccc(=O)[nH]c2=O)[C@@](C)(F)[C@@H]1O)Oc1ccccc1)C(=O)OCc1ccccc1` (some centres undefined) here?
A: Its EC50 is over 50 µM.

Q: What about the CC50 at 48 h [2] of the same compound?
A: Its CC50 at 48 h is over 100 µM.

Q: With `CC(C)OC(=O)[C@@H](Cc1ccccc1)NP(=O)(OC[C@H]1O[C@@H](n2ccc(=O)[nH]c2=O)[C@@](C)(F)[C@@H]1O)Oc1ccccc1` (some centres undefined) as the compound, how does the EC50 (Hepatitis C virus [1]) read?
A: Its EC50 is 35.3 µM.

Q: What about the CC50 at 48 h [2] of the same compound?
A: Its CC50 at 48 h is over 100 µM.

Q: With `CC(C)OC(=O)CNP(=O)(OC[C@H]1O[C@@H](n2ccc(=O)[nH]c2=O)[C@@](C)(F)[C@@H]1O)Oc1ccccc1` (some centres undefined) as the compound, how does the EC50 (Hepatitis C virus [1]) read?
A: Its EC50 is 22.9 µM.

Q: And the CC50 at 48 h [2]?
A: Its CC50 at 48 h is over 100 µM.

Q: What does the source list for `COC(=O)[C@H](C)NP(=O)(OC[C@H]1O[C@@H](n2ccc(=O)[nH]c2=O)[C@@](C)(F)[C@@H]1O)Oc1ccccc1` (some centres undefined)?
A: EC50 (Hepatitis C virus [1]): > 50 µM; CC50 at 48 h [2]: > 100 µM

Q: Which results are given for `CC(C)OC(=O)[C@H](Cc1ccccc1)NP(=O)(OC[C@H]1O[C@@H](n2ccc(=O)[nH]c2=O)[C@@](C)(F)[C@@H]1O)Oc1ccccc1` (some centres undefined)?
A: EC50 (Hepatitis C virus [1]): 33.3 µM; CC50 at 48 h [2]: > 100 µM

Q: With `CC(C)OC(=O)[C@@H](C)NP(=O)(OC[C@H]1O[C@@H](n2ccc(=O)[nH]c2=O)[C@@](C)(F)[C@@H]1O)Oc1ccccc1` (some centres undefined) as the compound, how does the EC50 (Hepatitis C virus [1]) read?
A: The EC50 was 34.3 µM.

Q: And the CC50 at 48 h [2]?
A: Its CC50 at 48 h is over 100 µM.

Q: What does the source list for `CC(C)OC(=O)[C@H](Cc1c[nH]c2ccccc12)NP(=O)(OC[C@H]1O[C@@H](n2ccc(=O)[nH]c2=O)[C@@](C)(F)[C@@H]1O)Oc1ccccc1` (some centres undefined)?
A: EC50 (Hepatitis C virus [1]): > 50 µM; CC50 at 48 h [2]: > 100 µM

Q: What does the source list for `CSCC[C@@H](NP(=O)(OC[C@H]1O[C@@H](n2ccc(=O)[nH]c2=O)[C@@](C)(F)[C@@H]1O)Oc1ccccc1)C(=O)OC(C)C` (some centres undefined)?
A: EC50 (Hepatitis C virus [1]): > 50 µM; CC50 at 48 h [2]: > 100 µM

Q: Which EC50 (Hepatitis C virus [1]) does the source give for `CC(C)OC(=O)[C@@H](Cc1c[nH]c2ccccc12)NP(=O)(OC[C@H]1O[C@@H](n2ccc(=O)[nH]c2=O)[C@@](C)(F)[C@@H]1O)Oc1ccccc1` (some centres undefined) here?
A: The EC50 was 0.88 µM.

Q: What about the CC50 at 48 h [2] of the same compound?
A: Its CC50 at 48 h is over 100 µM.

Q: For `C[C@H](NP(=O)(OC[C@H]1O[C@@H](n2ccc(=O)[nH]c2=O)[C@@](C)(F)[C@@H]1O)Oc1ccccc1)C(=O)OC1CCCCC1` (some centres undefined), which EC50 (Hepatitis C virus [1]) is on record?
A: The EC50 was over 50 µM.

Q: What about the CC50 at 48 h [2] of the same compound?
A: The CC50 at 48 h was over 100 µM.

Q: Which EC50 (Hepatitis C virus [1]) does the source give for `CC(C)OC(=O)[C@@H](NP(=O)(OC[C@H]1O[C@@H](n2ccc(=O)[nH]c2=O)[C@@](C)(F)[C@@H]1O)Oc1ccccc1)C(C)C` (some centres undefined) here?
A: Its EC50 is over 50 µM.

Q: And the CC50 at 48 h [2]?
A: Its CC50 at 48 h is over 100 µM.

Q: With `C[C@]1(F)[C@H](O)[C@@H](CO)O[C@H]1n1ccc(=O)[nH]c1=O` as the compound, how does the EC50 (Hepatitis C virus [1]) read?
A: The EC50 was 14.7 µM.

Q: And the CC50 at 48 h [2]?
A: The CC50 at 48 h was over 100 µM.

Q: With `CCCCCCOC(=O)[C@H](C)NP(=O)(OC[C@H]1O[C@@H](n2ccc(=O)[nH]c2=O)[C@@](C)(F)[C@@H]1O)Oc1ccccc1` (some centres undefined) as the compound, how does the EC50 (Hepatitis C virus [1]) read?
A: The EC50 was over 50 µM.

Q: And the CC50 at 48 h [2]?
A: Its CC50 at 48 h is over 100 µM.

Q: For `C[C@@]1(F)[C@H](O)[C@@H](CO)O[C@H]1n1ccc(N)nc1=O`, which EC50 (Hepatitis C virus [3]) is on record?
A: Its EC50 is 4.5 µM.

Q: For `CCCCOC(=O)[C@H](C)NP(=O)(OC[C@H]1O[C@@H](n2ccc(=O)[nH]c2=O)[C@@](C)(F)[C@@H]1O)Oc1ccccc1` (some centres undefined), which EC50 (Hepatitis C virus [1]) is on record?
A: Its EC50 is over 50 µM.

Q: What about the CC50 at 48 h [2] of the same compound?
A: Its CC50 at 48 h is over 100 µM.

Q: Which results are given for `CC(C)OC(=O)[C@H](C)N[P@](=O)(OC[C@H]1O[C@@H](n2ccc(=O)[nH]c2=O)[C@](C)(F)[C@@H]1O)Oc1ccccc1` [SOFOSBUVIR]?
A: EC90 (Hepatitis C virus [3]): 0.42 µM; EC50 (Hepatitis C virus [1]): 0.12 µM; CC50 at 48 h [2]: > 100 µM

Q: Which EC50 (Hepatitis C virus [1]) does the source give for `CC(C)OC(=O)[C@H](NP(=O)(OC[C@H]1O[C@@H](n2ccc(=O)[nH]c2=O)[C@@](C)(F)[C@@H]1O)Oc1ccccc1)C(C)C` (some centres undefined) here?
A: Its EC50 is 1.82 µM.

Q: What about the CC50 at 48 h [2] of the same compound?
A: The CC50 at 48 h was over 100 µM.

Q: Which EC50 (Hepatitis C virus [1]) does the source give for `CC(C)OC(=O)[C@H](C)NP(=O)(OC[C@H]1O[C@@H](n2ccc(=O)[nH]c2=O)[C@@](C)(F)[C@@H]1O)Oc1ccccc1` (some centres undefined) here?
A: Its EC50 is 34.2 µM.

Q: And the CC50 at 48 h [2]?
A: Its CC50 at 48 h is over 100 µM.

Q: What does the source list for `CCCCCOC(=O)[C@H](C)NP(=O)(OC[C@H]1O[C@@H](n2ccc(=O)[nH]c2=O)[C@@](C)(F)[C@@H]1O)Oc1ccccc1` (some centres undefined)?
A: EC50 (Hepatitis C virus [1]): > 50 µM; CC50 at 48 h [2]: > 100 µM

Q: Which results are given for `CCOC(=O)[C@H](C)NP(=O)(OC[C@H]1O[C@@H](n2ccc(=O)[nH]c2=O)[C@@](C)(F)[C@@H]1O)Oc1ccccc1` (some centres undefined)?
A: EC50 (Hepatitis C virus [1]): > 50 µM; CC50 at 48 h [2]: > 100 µM

Q: Which results are given for `CSCC[C@H](NP(=O)(OC[C@H]1O[C@@H](n2ccc(=O)[nH]c2=O)[C@@](C)(F)[C@@H]1O)Oc1ccccc1)C(=O)OC(C)C` (some centres undefined)?
A: EC50 (Hepatitis C virus [1]): 2.24 µM; CC50 at 48 h [2]: > 100 µM

From ChEMBL document CHEMBL3867487, “Discovery of 2'-α-C-Methyl-2'-β-C-fluorouridine Phosphoramidate Prodrugs as Inhibitors of Hepatitis C Virus” (ACS Med Chem Lett, 2016)
